From ChEMBL document CHEMBL1151371, “Plant Anticancer Agents. XI. 2,6-Dimethoxybenzoquinone as a Cytotoxic Constituent of Tibouchina pulchra” (1981)
Converted amounts (≈) assume the structure as drawn.

System: KB
Assay: Cytotoxicity against human KB cells
Type: functional
Details: read-out: ED50 (the source's name)

Question: With COC1=CC(=O)C=C(OC)C1=O [2,6-DIMETHOXYQUINONE] as the molecule, how does the EC50 read?
Answer: 3.1 µg/mL (≈ 18.4 µM)
